Consider 16 compounds from publication PMC8815882, “Screening the pandemic response box identified benzimidazole carbamates, Olorofim and ravuconazole as promising drug candidates for the treatment of eumycetoma” (PLoS Neglected Tropical Diseases, 2022).

Like-named read-outs stand apart in the source and are kept apart here.

The test system of this experiment is M. mycetomatis genome strain MM55. The experiment in a line: CLSI M38-A2 based in vitro susceptibility screening (XTT or resazurin), growth at fixed concentration. In kind it is cell-based, Madurella mycetomatis. To be noted: Madurella mycetomatis.
Where [1] appears, read: mean of three replicates, read-out: Percentage survival at 25um, 25 uM mean.
[2] abbreviates: replicate A, read-out: Percentage survival at 25um, 25 um A.
Setting [3] is: replicate B, read-out: Percentage survival at 25um, 25 uM B.
The mark [4] stands for this setting: replicate C, read-out: Percentage survival at 25um, 25 uM C.
Where [5] appears, read: first replicate column, read-out: Percentage survival at 100um, 100 uM A.
[6] abbreviates: mean of three replicates, read-out: Percentage survival at 100um, 100 uM mean.
Setting [7] is: second replicate column, read-out: Percentage survival at 100um, 100 uM A.
Setting [8] is: third replicate column, read-out: Percentage survival at 100um, 100 uM A.
Where [9] appears, read: replicate 1, read-out: Percentage survival at 100um, 100 uM A (first replicate column).
The mark [10] stands for this setting: replicate 2, read-out: Percentage survival at 100um, 100 uM A (second replicate column).
The mark [11] stands for this setting: replicate 3, read-out: Percentage survival at 100um, 100 uM A (third replicate column).
The mark [12] stands for this setting: mean, read-out: Percentage survival at 25um, 25 uM mean.
Where [13] appears, read: mean, read-out: Percentage survival at 100um, 100 uM mean.
Setting [14] is: replicate (first column), read-out: Percentage survival at 100um, 100 uM A.
[15] abbreviates: replicate (second column), read-out: Percentage survival at 100um, 100 uM A.
The mark [16] stands for this setting: replicate (third column), read-out: Percentage survival at 100um, 100 uM A.
Where [17] appears, read: mean of replicates, MM55, read-out: Percentage survival at 25um, 25 uM mean.
Where [18] appears, read: replicate A, MM55, read-out: Percentage survival at 25um, 25 um A.
[19] abbreviates: replicate B, MM55, read-out: Percentage survival at 25um, 25 uM B.
Where [20] appears, read: replicate C, MM55, read-out: Percentage survival at 25um, 25 uM C.
Setting [21] is: mean of replicates, MM55, read-out: Percentage survival at 100um, 100 uM mean.
[22] abbreviates: replicate 1, MM55, read-out: Percentage survival at 100um, 100 uM A.
The mark [23] stands for this setting: replicate 2, MM55, read-out: Percentage survival at 100um, 100 uM A.
Where [24] appears, read: replicate 3, MM55, read-out: Percentage survival at 100um, 100 uM A.
The mark [25] stands for this setting: mean of replicates, read-out: Percentage survival at 25um, 25 uM mean.
Where [26] appears, read: mean of replicates, read-out: Percentage survival at 100um, 100 uM mean.
[27] abbreviates: replicate 1, read-out: Percentage survival at 100um, 100 uM A.
The mark [28] stands for this setting: replicate 2, read-out: Percentage survival at 100um, 100 uM A.
[29] abbreviates: replicate 3, read-out: Percentage survival at 100um, 100 uM A.

With `Cc1ccccc1NC(=O)Nc1cccc([N+](=O)[O-])c1` [MMV1581029], the activity at 25 µM under setting [1] is 89.2%, the activity at 25 µM under setting [2] amounted to 95.8%, the activity at 25 µM under setting [3] turned out to be 97.7% and the activity at 25 µM under setting [4] turned out to be 74%. The activity at 100 µM turned out to be 95.6% under setting [5], 92.5% under setting [6], 104% under setting [7] and 77.8% under setting [8].
Consider `CC1=C(/C=C/C(C)=C/C=C/C(C)=C/C(=O)Nc2ccc(O)cc2)C(C)(C)CCC1` [MMV001793], for which the activity at 25 µM came to 68.1% under setting [1], 69.1% under setting [2], 68.9% under setting [3] and 66.2% under setting [4]. The activity at 100 µM turned out to be 62% under setting [6], 59% under setting [9] and 68.7% under setting [11]. Also, the Percent fungal survival at 100 µM under setting [10] is 58.3%.
As for `O=C(NC(=O)N1CCCc2ccccc21)c1cccc(Cl)c1` [MMV1782351], the activity at 25 µM stood at 92% under setting [12], 96.8% under setting [2], 101% under setting [3] and 78.3% under setting [4]. Moreover, the activity at 100 µM runs as follows: under setting [13], 75.7%; under setting [14], 73.9%; under setting [15], 74.5%; under setting [16], 78.6%.
In the case of `COc1cc(Cc2cnc(N)nc2N)cc(OC)c1OC` [MMV000028], the activity at 25 µM stood at 83.8% (mean of three, M. mycetomatis MM55, read-out: Percentage survival at 25um, 25 uM mean); 93.1% (replicate A, M. mycetomatis MM55, read-out: Percentage survival at 25um, 25 um A); 86.4% (replicate B, M. mycetomatis MM55, read-out: Percentage survival at 25um, 25 uM B); 71.8% (replicate C, M. mycetomatis MM55, read-out: Percentage survival at 25um, 25 uM C). The activity at 100 µM came out at 77.4% (mean of three, M. mycetomatis MM55, read-out: Percentage survival at 100um, 100 uM mean); 78.2% (replicate 1, M. mycetomatis MM55, read-out: Percentage survival at 100um, 100 uM A (first replicate column)); 74.4% (replicate 2, M. mycetomatis MM55, read-out: Percentage survival at 100um, 100 uM A (second replicate column)); 79.6% (replicate 3, M. mycetomatis MM55, read-out: Percentage survival at 100um, 100 uM A (third replicate column)).
For `O=C(NNC(=S)Nc1ccc(Cl)cc1)c1ccncc1` [MMV1782227], the activity at 25 µM under setting [12] amounted to 85.9%, the activity at 25 µM under setting [2] was found to be 105%, the activity at 25 µM under setting [3] was 86.1% and the activity at 25 µM under setting [4] was determined as 67%. For the same compound, the activity at 100 µM came to 121% under setting [13], 128% under setting [14], 90.7% under setting [15] and 144% under setting [16].
As for `CC(Oc1ccc(Cl)cc1Cl)C(=O)NCc1ccc2c(c1)OCO2` (centres unmarked) [MMV1578925], the activity at 25 µM came to 48.3% under setting [12], 53.9% under setting [2], 36.1% under setting [3] and 54.9% under setting [4]. In addition, the activity at 100 µM by setting is: under setting [13], 70.2%; under setting [14], 65.3%; under setting [15], 69%; under setting [16], 76.3%.
On to `CC#C[C@]1(O)CC[C@H]2[C@@H]3CCC4=CC(=O)CCC4=C3[C@@H](c3ccc(N(C)C)cc3)C[C@@]21C` [MMV003297], for which the activity at 25 µM was found to be 87.2% under setting [1], 90.2% under setting [2], 94.9% under setting [3] and 76.5% under setting [4]. In addition, the activity at 100 µM reads like this: under setting [5], 84.5%; under setting [6], 80.3%; under setting [7], 82.6%; under setting [8], 73.8%.
For the compound `COc1cc(C(C(=O)NC2CCCCC2)N(C(=O)Cc2c[nH]c3ccccc23)c2ccc(C(C)C)cc2)cc(OC)c1OC` (centres unmarked) [MMV1593544], the activity at 25 µM runs as follows: under setting [17], 98.2%; under setting [18], 107%; under setting [19], 106%; under setting [20], 81.3%. For the same compound, the activity at 100 µM runs as follows: under setting [21], 88.5%; under setting [22], 98%; under setting [23], 88.7%; under setting [24], 78.7%.
For the compound `C=C(C)[C@@H]1CC[C@]2(C(=O)O)CC[C@]3(C)[C@H](CC[C@@H]4[C@@]5(C)CC[C@H](O)C(C)(C)[C@@H]5CC[C@]43C)[C@@H]12` [MMV638198], the activity at 25 µM was determined as 78.4% under setting [17], 65.7% under setting [18], 92.3% under setting [19] and 77.1% under setting [20]. Moreover, the activity at 100 µM under setting [21] came to 79.4%, the activity at 100 µM under setting [22] was 83.2%, the activity at 100 µM under setting [23] came out at 80.2% and the activity at 100 µM under setting [24] worked out at 74.7%.
On to `COc1nc2ccc(Br)cc2cc1[C@@H](c1ccccc1)[C@@](O)(CCN(C)C)c1cccc2ccccc12` [MMV689758], for which the activity at 25 µM is 98.1% under setting [1], 102% under setting [2], 87.7% under setting [3] and 104% under setting [4]. In addition, the activity at 100 µM stood at 84.6% under setting [6], 80.8% under setting [9] and 97.2% under setting [11]. Besides, the Percent fungal survival at 100 µM under setting [10] turned out to be 75.9%.
With `Nc1nc(-c2ccccc2)nc2c1ncn2[C@@H]1O[C@H](COS(=O)(=O)NC(=O)c2ccccc2O)[C@@H](O)[C@H]1O` [MMV1582488], the activity at 25 µM was 78% under setting [25], 74.7% under setting [2], 83.6% under setting [3] and 75.7% under setting [4]. The activity at 100 µM under setting [26] is 72.1%, the activity at 100 µM under setting [27] was 75.9%, the activity at 100 µM under setting [28] was 69.3% and the activity at 100 µM under setting [29] came out at 71.1%.
`Nc1ccc2oc(=O)ccc2c1I` [MMV1581378]: the activity at 25 µM under setting [1] amounted to 80.5%, the activity at 25 µM under setting [2] was 75.8%, the activity at 25 µM under setting [3] stood at 85.5% and the activity at 25 µM under setting [4] turned out to be 80.1%. Besides, the activity at 100 µM is, setting by setting: under setting [5], 75.4%; under setting [6], 64.9%; under setting [7], 66.2%; under setting [8], 53.2%.
As for `CN(C)[C@@H]1C(=O)C(C(N)=O)=C(O)[C@@]2(O)C(=O)C3=C(O)c4c(O)c(NC(=O)CN5CCCC5)cc(F)c4C[C@H]3C[C@@H]12` [MMV1578574], the activity at 25 µM by setting is: under setting [25], 74.6%; under setting [2], 58%; under setting [3], 94%; under setting [4], 72%. In addition, the activity at 100 µM by setting is: under setting [26], 93%; under setting [27], 92.7%; under setting [28], 96.8%; under setting [29], 89.4%.
In the case of `CCn1cc(C(=O)O)c(=O)c2cc(F)c(N3CCNC(C)C3)c(F)c21` (centres unmarked) [MMV002350], the activity at 25 µM under setting [17] amounted to 91.3%, the activity at 25 µM under setting [18] was found to be 97.9%, the activity at 25 µM under setting [19] is 93.8% and the activity at 25 µM under setting [20] is 82.3%. Besides, the activity at 100 µM is, setting by setting: under setting [21], 89%; under setting [22], 92.8%; under setting [23], 92.2%; under setting [24], 82.2%.
Take `Cn1cc(NC(=O)c2cc(NC(=O)c3ccc(/C=C/c4cnc5ccccc5c4)cc3)cn2C)cc1C(=O)NCCN1CCOCC1` [MMV1634391]: the activity at 25 µM stood at 73.9% under setting [25], 63.4% under setting [2], 79.1% under setting [3] and 79.2% under setting [4]. Also, the activity at 100 µM reads like this: under setting [26], 60.7%; under setting [27], 61%; under setting [28], 53.1%; under setting [29], 68%.
Consider `CCc1nc(N)nc(N)c1C#CCc1ccccc1` [MMV1581549], for which the activity at 25 µM under setting [1] was found to be 92.3%, the activity at 25 µM under setting [2] was 59.8%, the activity at 25 µM under setting [3] stood at 78.6% and the activity at 25 µM under setting [4] is 138%. The activity at 100 µM by setting is: under setting [6], 2.68%; under setting [9], 1.33%; under setting [11], 5.46%. Besides, the Percent fungal survival at 100 µM under setting [10] was 1.24%.
